Data from ChEMBL document CHEMBL1140810, “Conversion of an MMP-potent scaffold to an MMP-selective HER-2 sheddase inhibitor via scaffold hybridization and subtle P1' permutations” (Bioorg Med Chem Lett, 2008).

Tests used:
[1] = biological target: T1, Disintegrin and metalloproteinase domain-containing protein 10 (Homo sapiens, UniProt O14672)
T1 sequence (O14672 whole entry): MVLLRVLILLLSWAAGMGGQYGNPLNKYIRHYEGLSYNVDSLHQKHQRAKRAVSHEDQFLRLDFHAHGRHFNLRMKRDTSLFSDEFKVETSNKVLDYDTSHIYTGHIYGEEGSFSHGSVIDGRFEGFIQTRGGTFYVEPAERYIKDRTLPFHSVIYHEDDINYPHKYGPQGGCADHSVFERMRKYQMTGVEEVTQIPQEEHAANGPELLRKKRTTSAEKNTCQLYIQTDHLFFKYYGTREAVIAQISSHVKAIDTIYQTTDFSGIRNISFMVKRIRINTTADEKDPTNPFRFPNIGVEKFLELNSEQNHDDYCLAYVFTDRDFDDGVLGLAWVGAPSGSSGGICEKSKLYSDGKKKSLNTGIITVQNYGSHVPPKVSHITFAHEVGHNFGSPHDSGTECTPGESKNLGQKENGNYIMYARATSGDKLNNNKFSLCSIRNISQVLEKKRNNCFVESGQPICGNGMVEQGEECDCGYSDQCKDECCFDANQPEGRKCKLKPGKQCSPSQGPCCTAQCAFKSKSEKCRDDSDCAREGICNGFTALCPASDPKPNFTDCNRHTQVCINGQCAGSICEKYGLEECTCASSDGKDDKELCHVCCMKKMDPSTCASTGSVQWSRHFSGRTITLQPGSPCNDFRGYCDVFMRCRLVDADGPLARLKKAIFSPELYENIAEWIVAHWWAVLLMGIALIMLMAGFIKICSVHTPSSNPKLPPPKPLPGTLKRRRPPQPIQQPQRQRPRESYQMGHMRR

[2] = biological target: T1, Disintegrin and metalloproteinase domain-containing protein 10; experiment: Inhibition of HER2 sheddase in human BT474 cells; type: cell-based, BT-474
[3] = biological target: 72 kDa type IV collagenase (Homo sapiens, UniProt P08253)
Chain of 72 kDa type IV collagenase (P08253 whole entry): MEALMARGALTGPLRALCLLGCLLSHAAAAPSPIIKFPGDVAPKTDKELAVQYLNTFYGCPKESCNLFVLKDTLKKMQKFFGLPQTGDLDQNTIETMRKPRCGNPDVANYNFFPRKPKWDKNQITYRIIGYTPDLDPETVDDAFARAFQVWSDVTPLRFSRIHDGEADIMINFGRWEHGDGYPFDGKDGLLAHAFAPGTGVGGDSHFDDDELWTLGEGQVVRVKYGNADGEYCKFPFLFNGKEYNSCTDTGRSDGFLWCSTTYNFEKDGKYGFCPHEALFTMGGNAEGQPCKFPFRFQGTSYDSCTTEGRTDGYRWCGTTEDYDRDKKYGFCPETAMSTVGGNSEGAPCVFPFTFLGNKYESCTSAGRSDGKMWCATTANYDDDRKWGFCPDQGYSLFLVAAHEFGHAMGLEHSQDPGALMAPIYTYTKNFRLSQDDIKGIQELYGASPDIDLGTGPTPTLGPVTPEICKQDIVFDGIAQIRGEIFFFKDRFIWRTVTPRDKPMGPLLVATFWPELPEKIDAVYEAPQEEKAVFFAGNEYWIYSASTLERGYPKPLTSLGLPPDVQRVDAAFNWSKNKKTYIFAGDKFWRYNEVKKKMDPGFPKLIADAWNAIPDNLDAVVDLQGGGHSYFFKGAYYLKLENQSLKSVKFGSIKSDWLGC

[4] = biological target: T2, Interstitial collagenase (Homo sapiens, UniProt P03956)
T2 sequence (P03956 whole entry): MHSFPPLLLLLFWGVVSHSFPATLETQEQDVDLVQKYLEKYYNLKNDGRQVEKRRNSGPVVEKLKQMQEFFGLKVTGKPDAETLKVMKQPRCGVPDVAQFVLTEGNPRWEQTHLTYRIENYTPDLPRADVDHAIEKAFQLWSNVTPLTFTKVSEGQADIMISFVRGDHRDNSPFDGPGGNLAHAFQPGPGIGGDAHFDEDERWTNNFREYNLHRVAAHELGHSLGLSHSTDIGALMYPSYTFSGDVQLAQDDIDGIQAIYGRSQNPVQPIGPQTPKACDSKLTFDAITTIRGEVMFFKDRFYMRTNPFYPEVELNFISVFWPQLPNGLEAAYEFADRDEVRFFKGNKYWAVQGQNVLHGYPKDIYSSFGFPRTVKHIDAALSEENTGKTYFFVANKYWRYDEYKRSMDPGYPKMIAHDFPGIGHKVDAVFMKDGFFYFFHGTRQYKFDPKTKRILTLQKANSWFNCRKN

[5] = biological target: Stromelysin-1 (Homo sapiens, UniProt P08254); experiment: Inhibition of MMP3
Chain of Stromelysin-1 (P08254 whole entry): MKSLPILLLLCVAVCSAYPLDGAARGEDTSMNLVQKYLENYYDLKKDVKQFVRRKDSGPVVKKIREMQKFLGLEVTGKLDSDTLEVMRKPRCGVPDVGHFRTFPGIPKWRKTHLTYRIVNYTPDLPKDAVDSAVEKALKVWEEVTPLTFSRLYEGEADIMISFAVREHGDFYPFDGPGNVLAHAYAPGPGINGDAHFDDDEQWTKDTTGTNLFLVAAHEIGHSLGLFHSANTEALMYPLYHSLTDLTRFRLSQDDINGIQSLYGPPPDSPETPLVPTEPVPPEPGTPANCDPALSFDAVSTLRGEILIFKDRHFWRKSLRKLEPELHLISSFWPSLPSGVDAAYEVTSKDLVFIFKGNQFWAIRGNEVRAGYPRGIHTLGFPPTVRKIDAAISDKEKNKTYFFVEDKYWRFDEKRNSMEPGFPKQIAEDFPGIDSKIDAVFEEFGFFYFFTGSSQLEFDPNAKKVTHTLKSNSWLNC

[6] = biological target: Matrix metalloproteinase-9 (Homo sapiens, UniProt P14780); experiment: Inhibition of MMP9
Chain of Matrix metalloproteinase-9 (P14780 whole entry): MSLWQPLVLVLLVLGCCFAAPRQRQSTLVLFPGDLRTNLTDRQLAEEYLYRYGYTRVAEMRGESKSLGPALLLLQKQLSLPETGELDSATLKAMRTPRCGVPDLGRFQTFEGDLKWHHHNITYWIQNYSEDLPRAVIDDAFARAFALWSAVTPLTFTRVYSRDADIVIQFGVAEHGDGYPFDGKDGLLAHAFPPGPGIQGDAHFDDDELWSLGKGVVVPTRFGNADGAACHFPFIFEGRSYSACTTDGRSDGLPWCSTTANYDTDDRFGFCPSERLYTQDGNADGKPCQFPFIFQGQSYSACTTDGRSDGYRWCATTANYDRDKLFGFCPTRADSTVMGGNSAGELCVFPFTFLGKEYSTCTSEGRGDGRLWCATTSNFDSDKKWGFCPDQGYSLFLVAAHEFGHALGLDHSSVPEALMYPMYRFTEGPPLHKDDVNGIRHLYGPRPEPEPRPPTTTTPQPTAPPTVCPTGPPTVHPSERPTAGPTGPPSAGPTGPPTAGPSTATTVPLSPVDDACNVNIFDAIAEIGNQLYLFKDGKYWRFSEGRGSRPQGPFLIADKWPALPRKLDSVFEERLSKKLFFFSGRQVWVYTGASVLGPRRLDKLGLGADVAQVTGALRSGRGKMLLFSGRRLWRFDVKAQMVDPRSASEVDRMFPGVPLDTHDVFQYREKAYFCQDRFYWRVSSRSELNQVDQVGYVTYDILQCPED

## Cc1ccccc1C1=CCN(S(=O)(=O)CC2(C(=O)NO)CCN(C(=O)O[C@H]3CCOC3)CC2)CC1
[1]
  IC50: 18 nM
[2]
  IC50: 133 nM
[3]
  IC50: 2000 nM

## Cc1ccccc1C1CCN(S(=O)(=O)CC2(C(=O)NO)CCN(C(=O)OC3(C)CCOC3)CC2)CC1 (configuration not stated)
[1]
  IC50: 11 nM
[2]
  IC50: 36 nM
[3]
  IC50: 564 nM
[4]
  IC50: > 5000 nM

## N#Cc1ccc(C2CCN(S(=O)(=O)CC3(C(=O)NO)CCN(C(=O)O[C@H]4CCOC4)CC3)CC2)cc1
[1]
  IC50: 39 nM
[2]
  IC50: 77 nM
[3]
  IC50: 9 nM

## N#Cc1ccccc1C1CCN(S(=O)(=O)CC2(C(=O)NO)CCN(C(=O)O[C@H]3CCOC3)CC2)CC1
[1]
  IC50: > 2000 nM
[2]
  IC50: > 1000 nM
[3]
  IC50: > 2000 nM

## Cc1cc(F)ccc1C1CCN(S(=O)(=O)CC2(C(=O)NO)CCN(C(=O)O[C@H]3CCOC3)CC2)CC1
[1]
  IC50: 92 nM
[2]
  IC50: 141 nM
[3]
  IC50: > 2000 nM

## Cc1cc(C#N)ccc1C1=CCN(S(=O)(=O)CC2(C(=O)NO)CCN(C(=O)O[C@H]3CCOC3)CC2)CC1
[1]
  IC50: 107 nM
[2]
  IC50: 45 nM
[3]
  IC50: 1560 nM

## Cc1cc(C)cc(C2CCN(S(=O)(=O)CC3(C(=O)NO)CCN(C(=O)O[C@H]4CCOC4)CC3)CC2)c1
[1]
  IC50: 286 nM
[2]
  IC50: 833 nM
[3]
  IC50: 315 nM
[5]
  IC50: 2160 nM
[4]
  IC50: > 5000 nM
[6]
  IC50: 955 nM

## O=C(O[C@H]1CCOC1)N1CCC(CS(=O)(=O)N2CC=C(c3ccccc3)CC2)(C(=O)NO)CC1
[1]
  IC50: 10 nM
[2]
  IC50: 7.1 nM
[3]
  IC50: 4 nM
[5]
  IC50: 237 nM
[4]
  IC50: 259 nM
[6]
  IC50: 25 nM

## Cc1cc(C#N)ccc1C1CCN(S(=O)(=O)CC2(C(=O)NO)CCN(C(=O)O[C@H]3CCOC3)CC2)CC1
[1]
  IC50: 12 nM
[2]
  IC50: 14 nM
[3]
  IC50: 2000 nM
[5]
  IC50: > 5000 nM
[4]
  IC50: > 5000 nM
[6]
  IC50: > 5000 nM

## Cc1ccccc1C1CCN(S(=O)(=O)CC2(C(=O)NO)CCN(C(=O)OC3CCCC3O)CC2)CC1 (trans isomer)
[1]
  IC50: 16 nM
[2]
  IC50: 6.2 nM
[3]
  IC50: 537 nM
[4]
  IC50: 5000 nM

## Cc1ccccc1C1CCN(S(=O)(=O)CC2(C(=O)NO)CCN(C(=O)OC[C@H]3CCCN3)CC2)CC1
[1]
  IC50: 19 nM
[2]
  IC50: 30 nM
[3]
  IC50: > 2000 nM
[4]
  IC50: > 5000 nM

## O=C(O[C@H]1CCOC1)N1CCC(CS(=O)(=O)N2CCC(c3ccccc3)CC2)(C(=O)NO)CC1
[1]
  IC50: 28 nM
[2]
  IC50: 22 nM
[3]
  IC50: 18 nM
[5]
  IC50: 366 nM
[4]
  IC50: 753 nM
[6]
  IC50: 22 nM

## Cc1cc(C#N)ccc1C1CCN(S(=O)(=O)CC2(C(=O)NO)CCN(C(=O)OC3CCNC3)CC2)CC1 (configuration not stated)
[1]
  IC50: 7.8 nM
[2]
  IC50: 13 nM
[3]
  IC50: > 2000 nM
[4]
  IC50: > 5000 nM

## Cc1cc(C#N)ccc1C1CCN(S(=O)(=O)CC2(C(=O)NO)CCN(C(=O)OC[C@@H]3CCCN3)CC2)CC1
[1]
  IC50: 9.1 nM
[2]
  IC50: 6.5 nM
[3]
  IC50: 1270 nM
[4]
  IC50: > 5000 nM

## Cc1cc(C#N)ccc1N1CCN(S(=O)(=O)CC2(C(=O)NO)CCN(C(=O)O[C@H]3CCOC3)CC2)CC1
[1]
  IC50: 26 nM
[2]
  IC50: 25 nM
[3]
  IC50: > 5000 nM
[5]
  IC50: > 5000 nM
[4]
  IC50: > 5000 nM
[6]
  IC50: > 5000 nM

## Cc1cc(C(=O)N(C)C)ccc1C1CCN(S(=O)(=O)CC2(C(=O)NO)CCN(C(=O)O[C@H]3CCOC3)CC2)CC1
[1]
  IC50: > 2000 nM
[2]
  IC50: > 1000 nM
[3]
  IC50: 655 nM

## Cc1ccccc1N1CCN(S(=O)(=O)CC2(C(=O)NO)CCN(C(=O)O[C@H]3CCOC3)CC2)CC1
[1]
  IC50: 107 nM
[2]
  IC50: 217 nM
[3]
  IC50: > 2000 nM

## Cc1cc(C#N)ccc1C1=CCN(S(=O)(=O)CC2(C(=O)NO)CCN(C(=O)OC[C@H]3CCCN3)CC2)CC1
[1]
  IC50: 24 nM
[2]
  IC50: 19 nM
[3]
  IC50: > 2000 nM
[4]
  IC50: > 5000 nM

## Cc1cc(C2CCN(S(=O)(=O)CC3(C(=O)NO)CCN(C(=O)O[C@H]4CCOC4)CC3)CC2)cc(C)c1C#N
[1]
  IC50: 57 nM
[2]
  IC50: 96 nM
[3]
  IC50: 126 nM
[5]
  IC50: 756 nM
[4]
  IC50: > 5000 nM
[6]
  IC50: 535 nM

## O=C(O[C@H]1CCOC1)N1CCC(CS(=O)(=O)N2CCC(c3ccccc3)C2)(C(=O)NO)CC1 (some centres not stated)
[1]
  IC50: 261 nM
[2]
  IC50: 358 nM
[3]
  IC50: 549 nM

## Cc1cc(C#N)ccc1C1CCN(S(=O)(=O)CC2(C(=O)NO)CCN(C(=O)OC[C@H]3CCCN3)CC2)CC1
[1]
  IC50: 11 nM
[2]
  IC50: 23 nM
[3]
  IC50: 1380 nM
[4]
  IC50: > 5000 nM

## O=C(O[C@H]1CCOC1)N1CCC(CS(=O)(=O)N2CCC(c3ccccc3F)CC2)(C(=O)NO)CC1
[1]
  IC50: 44 nM
[2]
  IC50: 76 nM
[3]
  IC50: 135 nM
[5]
  IC50: 942 nM
[4]
  IC50: > 5000 nM
[6]
  IC50: 100 nM

## O=C(O[C@H]1CCOC1)N1CCC(CS(=O)(=O)N2CCC(c3ccccc3C(F)(F)F)CC2)(C(=O)NO)CC1
[1]
  IC50: 1040 nM
[2]
  IC50: > 1000 nM
[3]
  IC50: > 2000 nM

## C#CCN1CCC(CS(=O)(=O)c2ccc(Oc3ccccc3)cc2)(C(=O)NO)CC1
[3]
  IC50: < 1.5 nM
[5]
  IC50: < 1.5 nM
[4]
  IC50: 8660 nM
[6]
  IC50: < 1.5 nM

## Cc1ccccc1C1CCN(S(=O)(=O)CC2(C(=O)NO)CCN(C(=O)OC3CCNC3)CC2)CC1 (configuration not stated)
[1]
  IC50: 18 nM
[2]
  IC50: 16 nM
[3]
  IC50: 546 nM
[4]
  IC50: > 5000 nM

## Cc1cc(C#N)ccc1C1=CCN(S(=O)(=O)CC2(C(=O)NO)CCN(C(=O)OC[C@@H]3CCCN3)CC2)CC1
[1]
  IC50: 34 nM
[2]
  IC50: 27 nM
[3]
  IC50: > 2000 nM
[4]
  IC50: > 5000 nM

## Cc1ccccc1C1CCN(S(=O)(=O)CC2(C(=O)NO)CCN(C(=O)O[C@H]3CCOC3)CC2)CC1
[1]
  IC50: 18 nM
[2]
  IC50: 41 nM
[3]
  IC50: > 2000 nM
[5]
  IC50: > 5000 nM
[4]
  IC50: > 5000 nM
[6]
  IC50: > 5000 nM

## O=C(O[C@H]1CCOC1)N1CCC(CS(=O)(=O)N2CC=C(c3ccccc3)C2)(C(=O)NO)CC1
[1]
  IC50: 332 nM
[2]
  IC50: 102 nM
[3]
  IC50: 52 nM

## O=C(O[C@H]1CCOC1)N1CCC(CS(=O)(=O)N2CCN(c3ccccc3)CC2)(C(=O)NO)CC1
[1]
  IC50: 15 nM
[2]
  IC50: 13 nM
[3]
  IC50: 13 nM
[5]
  IC50: 925 nM
[4]
  IC50: 774 nM
[6]
  IC50: 78 nM

## Cc1ccccc1C1CCN(S(=O)(=O)CC2(C(=O)NO)CCN(C(=O)OC3COCC3(C)C)CC2)CC1 (configuration not stated)
[1]
  IC50: 22 nM
[2]
  IC50: 14 nM
[3]
  IC50: 574 nM
[4]
  IC50: > 5000 nM

## Cc1ccccc1C1CCN(S(=O)(=O)CC2(C(=O)NO)CCN(C(=O)OC[C@@H]3CCCN3)CC2)CC1
[1]
  IC50: 34 nM
[2]
  IC50: 23 nM
[3]
  IC50: > 2000 nM
[4]
  IC50: > 5000 nM
